Laboratory results: patent US20240270821A1, “GIP/GLP1/GCG TRI-RECEPTOR AGONISTS AND USES THEREOF” (priority 2023, published 2024)
Starred links: 1 amine or outer side, 2 acyl side, 3 side chain; linkers in the order of their positions; H or OH if unused. Non-standard residues stand in square brackets, D forms with d. Residues, ends and D or L forms follow the SMILES beside them. Groups on a side chain read outwards from the residue. *: point of attachment. C18 diacid = O=C(O)CCCCCCCCCCCCCCCCC(=O)*; αMePhe(2-F) = C[C@](N)(Cc1ccccc1F)C(=O)O; γGlu = O=C(O)[C@H](CCC(=O)[*:2])N[*:1]; αMeL = CC(C)C[C@](C)(N)C(=O)O; AEEA = NCCOCCOCC(=O)O; Aib = CC(C)(N)C(=O)O

Key:
Format in all cases: cell-based
hGLP-1R [1] = target: T1, hGLP-1R (Homo sapiens, UniProt P43220); test: Functional cAMP activity in the presence of 1% HSA; details: read-out: cAMP Rel EC50, hGLP-1R
hGcgR = hGcgR (Homo sapiens, UniProt P47871); test: Functional cAMP activation in the presence of 0.1% casein (no HSA); details: read-out: Relative cAMP EC50, hGcgR;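 also: intracellular cAMP rise after 30 min at 37 °C, read by HTRF against a cAMP standard curve, scaled from buffer only (0%) to maximal control ligand response (100%)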
hGIPR [2] = target: T2, hGIPR (Homo sapiens, UniProt P48546); test: Functional cAMP activity in the presence of 1% HSA; details: read-out: cAMP Rel EC50, hGIPR
T2 sequence (P48546 22-466): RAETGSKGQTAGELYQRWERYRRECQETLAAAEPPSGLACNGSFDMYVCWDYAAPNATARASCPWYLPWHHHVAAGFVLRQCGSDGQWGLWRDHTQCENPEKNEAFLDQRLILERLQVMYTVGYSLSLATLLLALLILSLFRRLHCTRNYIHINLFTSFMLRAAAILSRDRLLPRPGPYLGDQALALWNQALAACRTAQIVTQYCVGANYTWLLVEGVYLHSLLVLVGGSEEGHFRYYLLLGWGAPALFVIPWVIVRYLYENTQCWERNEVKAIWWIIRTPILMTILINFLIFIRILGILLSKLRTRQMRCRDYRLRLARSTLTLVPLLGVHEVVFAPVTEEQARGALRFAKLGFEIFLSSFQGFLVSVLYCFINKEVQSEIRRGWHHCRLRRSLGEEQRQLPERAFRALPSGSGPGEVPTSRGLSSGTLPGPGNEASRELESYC

hGLP-1R [3] = target: T1, hGLP-1R; test: Functional cAMP activation in the presence of 0.1% casein (no HSA); details: read-out: Relative cAMP EC50, hGLP-1R;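 as to Relative cAMP EC50, hGIPR: intracellular cAMP rise after 30 min at 37 °C read by HTRF against a standard curve, scaled between buffer alone (0%) and top control ligand concentration (100%), four-parameter fit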;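 as to Relative cAMP EC50, hGLP-1R: intracellular cAMP rise after 30 min at 37 °C read by HTRF, normalized between buffer only (0%) and maximal control ligand (100%), four-parameter variable-slope fit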
hGIPR [4] = target: T2, hGIPR; test: as above; details: read-out: Relative cAMP EC50, hGIPR
human GcgR = human GcgR (Homo sapiens, UniProt P47871); test: Functional cAMP activity in the presence of 1% HSA; details: read-out: cAMP Rel EC50, hGcgR
human GcgR, sequence (P47871 26-477): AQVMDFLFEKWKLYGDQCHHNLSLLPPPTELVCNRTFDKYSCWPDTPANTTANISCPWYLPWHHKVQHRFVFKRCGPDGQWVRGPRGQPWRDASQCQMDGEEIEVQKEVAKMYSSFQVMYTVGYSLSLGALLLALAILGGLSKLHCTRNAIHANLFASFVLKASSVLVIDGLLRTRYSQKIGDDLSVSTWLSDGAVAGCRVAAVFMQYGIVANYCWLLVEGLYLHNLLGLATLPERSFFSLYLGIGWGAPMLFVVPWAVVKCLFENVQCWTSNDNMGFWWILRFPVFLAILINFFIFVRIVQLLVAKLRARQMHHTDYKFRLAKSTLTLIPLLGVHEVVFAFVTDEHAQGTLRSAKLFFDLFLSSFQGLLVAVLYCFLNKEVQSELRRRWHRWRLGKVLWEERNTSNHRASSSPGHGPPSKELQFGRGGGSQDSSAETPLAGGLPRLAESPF

T1 sequence (P43220 24-463): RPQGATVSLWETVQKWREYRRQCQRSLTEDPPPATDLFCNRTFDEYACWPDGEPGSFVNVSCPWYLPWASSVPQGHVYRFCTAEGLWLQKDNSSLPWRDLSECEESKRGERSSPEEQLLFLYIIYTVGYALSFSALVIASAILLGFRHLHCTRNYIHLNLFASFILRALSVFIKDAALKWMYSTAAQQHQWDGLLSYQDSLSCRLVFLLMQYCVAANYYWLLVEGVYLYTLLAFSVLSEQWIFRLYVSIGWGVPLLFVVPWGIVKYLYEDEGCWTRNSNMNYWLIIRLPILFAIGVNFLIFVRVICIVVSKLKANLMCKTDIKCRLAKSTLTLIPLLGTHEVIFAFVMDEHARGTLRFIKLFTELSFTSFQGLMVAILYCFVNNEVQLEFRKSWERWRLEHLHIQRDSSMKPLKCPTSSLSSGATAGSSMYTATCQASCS
hGcgR, sequence (P47871 26-477): as the sequence (P47871 26-477) above

SMILES	EC50 (hGLP-1R [1]) [nM]	EC50 (hGcgR) [nM]	EC50 (hGIPR [2]) [nM]	EC50 (hGLP-1R [3]) [nM]	EC50 (hGIPR [4]) [nM]	EC50 (human GcgR) [nM]
CC[C@H](C)[C@H](NC(=O)[C@H](Cc1ccccc1)NC(=O)[C@H](C)NC(=O)C(C)(C)NC(=O)[C@H](CCC(N)=O)NC(=O)[C@H](C)NC(=O)[C@H](CCCCNC(=O)COCCOCCNC(=O)CC[C@H](NC(=O)CCCCCCCCCCCCCCCCC(=O)O)C(=O)O)NC(=O)[C@H](CCCCN)NC(=O)[C@H](CC(=O)O)NC(=O)[C@H](CC(C)C)NC(=O)[C@](C)(CC(C)C)NC(=O)[C@@H](NC(=O)[C@H](CO)NC(=O)[C@H](Cc1ccc(O)cc1)NC(=O)[C@H](CC(=O)O)NC(=O)[C@H](CO)NC(=O)[C@@H](NC(=O)[C@](C)(Cc1ccccc1F)NC(=O)[C@@H](NC(=O)CNC(=O)[C@H](CCC(N)=O)NC(=O)C(C)(C)NC(=O)[C@@H](N)Cc1ccc(O)cc1)[C@@H](C)O)[C@@H](C)O)[C@@H](C)CC)C(=O)N[C@@H](CCC(=O)O)C(=O)N[C@@H](Cc1ccc(O)cc1)C(=O)N[C@@H](CC(C)C)C(=O)N[C@@H](CCC(=O)O)C(=O)N[C@@H](CCC(=O)O)C(=O)NCC(=O)NCC(=O)N1CCC[C@H]1C(=O)N[C@@H](CO)C(=O)N[C@@H](CO)C(=O)NCC(=O)N[C@@H](C)C(=O)N1CCC[C@H]1C(=O)N1CCC[C@H]1C(=O)N1CCC[C@H]1C(=O)N[C@@H](CO)C(=O)N[C@@H](CCC(=O)O)C(N)=O [Example 424] (H-Y[Aib]QGT[αMePhe(2-F)]TSDYSI[αMeL]LDKK([AEEA-γGlu-C18 diacid])AQ[Aib]AFIEYLEEGGPSSGAPPPSE-NH2)	29.5	3.12	3.21	0.318	0.0154	443
CC[C@H](C)[C@H](NC(=O)[C@H](Cc1ccccc1)NC(=O)[C@H](C)NC(=O)C(C)(C)NC(=O)[C@H](CCC(N)=O)NC(=O)[C@H](C)NC(=O)[C@H](CCCCNC(=O)COCCOCCNC(=O)CC[C@H](NC(=O)CCCCCCCCCCCCCCCCC(=O)O)C(=O)O)NC(=O)[C@H](CCCCN)NC(=O)[C@H](CC(=O)O)NC(=O)[C@H](CC(C)C)NC(=O)[C@H](CC(C)C)NC(=O)[C@@H](NC(=O)[C@H](CO)NC(=O)[C@H](Cc1ccc(O)cc1)NC(=O)[C@H](CC(=O)O)NC(=O)[C@H](CO)NC(=O)[C@@H](NC(=O)[C@](C)(Cc1ccccc1F)NC(=O)[C@@H](NC(=O)CNC(=O)[C@H](CCC(N)=O)NC(=O)C(C)(C)NC(=O)[C@@H](N)Cc1c[nH]cn1)[C@@H](C)O)[C@@H](C)O)[C@@H](C)CC)C(=O)N[C@@H](CCC(=O)O)C(=O)N[C@@H](Cc1ccc(O)cc1)C(=O)N[C@@H](CC(C)C)C(=O)N[C@@H](CCC(=O)O)C(=O)N[C@@H](CCC(=O)O)C(=O)NCC(=O)NCC(=O)N1CCC[C@H]1C(=O)N[C@@H](CO)C(=O)N[C@@H](CO)C(=O)NCC(=O)N[C@@H](C)C(=O)N1CCC[C@H]1C(=O)N1CCC[C@H]1C(=O)N1CCC[C@H]1C(=O)N[C@@H](CO)C(N)=O [Example 425] (H-H[Aib]QGT[αMePhe(2-F)]TSDYSILLDKK([AEEA-γGlu-C18 diacid])AQ[Aib]AFIEYLEEGGPSSGAPPPS-NH2; N-terminus assumed)	20.3	5.49	46.9	0.15	0.0997	1150
CC[C@H](C)[C@H](NC(=O)[C@H](Cc1ccccc1)NC(=O)[C@H](C)NC(=O)C(C)(C)NC(=O)[C@H](CCC(N)=O)NC(=O)[C@H](C)NC(=O)[C@H](CCCCNC(=O)CC[C@H](NC(=O)CC[C@H](NC(=O)CCCCCCCCCCCCCCCCC(=O)O)C(=O)O)C(=O)O)NC(=O)[C@H](CCCCN)NC(=O)[C@H](CC(=O)O)NC(=O)[C@H](CC(C)C)NC(=O)[C@H](CC(C)C)NC(=O)[C@@H](NC(=O)[C@H](CO)NC(=O)[C@H](Cc1ccc(O)cc1)NC(=O)[C@H](CC(=O)O)NC(=O)[C@H](CO)NC(=O)[C@@H](NC(=O)[C@](C)(Cc1ccccc1F)NC(=O)[C@@H](NC(=O)CNC(=O)[C@H](CCC(N)=O)NC(=O)C(C)(C)NC(=O)[C@@H](N)Cc1c[nH]cn1)[C@@H](C)O)[C@@H](C)O)[C@@H](C)CC)C(=O)N[C@@H](CCC(=O)O)C(=O)N[C@@H](Cc1ccc(O)cc1)C(=O)N[C@@H](CC(C)C)C(=O)N[C@@H](CCC(=O)O)C(=O)N[C@@H](CCC(=O)O)C(=O)NCC(=O)NCC(=O)N1CCC[C@H]1C(=O)N[C@@H](CO)C(=O)N[C@@H](CO)C(=O)NCC(=O)N[C@@H](C)C(=O)N1CCC[C@H]1C(=O)N1CCC[C@H]1C(=O)N1CCC[C@H]1C(=O)N[C@@H](CO)C(N)=O [Example 426] (H-H[Aib]QGT[αMePhe(2-F)]TSDYSILLDKK([γGlu-γGlu-C18 diacid])AQ[Aib]AFIEYLEEGGPSSGAPPPS-NH2)	16.6	4.33	29.8	0.139	0.079	740
CC[C@H](C)[C@H](NC(=O)[C@H](CO)NC(=O)[C@H](Cc1ccc(O)cc1)NC(=O)[C@H](CC(=O)O)NC(=O)[C@H](CO)NC(=O)[C@@H](NC(=O)[C@](C)(Cc1ccccc1F)NC(=O)[C@@H](NC(=O)CNC(=O)[C@H](CCC(N)=O)NC(=O)C(C)(C)NC(=O)[C@@H](N)Cc1ccc(O)cc1)[C@@H](C)O)[C@@H](C)O)C(=O)N[C@@H](CC(C)C)C(=O)N[C@@H](CC(C)C)C(=O)N[C@@H](CC(=O)O)C(=O)N[C@@H](CCCN)C(=O)N[C@@H](CCCCNC(=O)COCCOCCNC(=O)COCCOCCNC(=O)CC[C@H](NC(=O)CCCCCCCCCCCCCCCCC(=O)O)C(=O)O)C(=O)N[C@@H](C)C(=O)N[C@@H](CCC(N)=O)C(=O)NC(C)(C)C(=O)N[C@@H](C)C(=O)N[C@@H](Cc1ccccc1)C(=O)N[C@H](C(=O)N[C@H](CCC(=O)O)C(=O)N[C@@H](Cc1ccc(O)cc1)C(=O)N[C@@H](CC(C)C)C(=O)N[C@@H](CC(C)C)C(=O)N[C@@H](CCC(=O)O)C(=O)NCC(=O)NCC(=O)N1CCC[C@H]1C(=O)N[C@@H](CO)C(=O)N[C@@H](CO)C(=O)NCC(=O)N[C@@H](C)C(=O)N1CCC[C@H]1C(=O)N1CCC[C@H]1C(=O)N1CCC[C@H]1C(=O)N[C@@H](CO)C(N)=O)[C@@H](C)CC [Example 427]	42.9	3.81	4.25	0.282	0.0121	1440
CC[C@H](C)[C@H](NC(=O)[C@H](CO)NC(=O)[C@H](Cc1ccc(O)cc1)NC(=O)[C@H](CC(=O)O)NC(=O)[C@H](CO)NC(=O)[C@@H](NC(=O)[C@](C)(Cc1ccccc1F)NC(=O)[C@@H](NC(=O)CNC(=O)[C@H](CCC(N)=O)NC(=O)C(C)(C)NC(=O)[C@@H](N)Cc1ccc(O)cc1)[C@@H](C)O)[C@@H](C)O)C(=O)N[C@@H](CC(C)C)C(=O)N[C@@H](CC(C)C)C(=O)N[C@@H](CC(=O)O)C(=O)N[C@@H](CCCN)C(=O)N[C@@H](CCCCNC(=O)CC[C@H](NC(=O)CC[C@H](NC(=O)CCCCCCCCCCCCCCCCC(=O)O)C(=O)O)C(=O)O)C(=O)N[C@@H](C)C(=O)N[C@@H](CCC(N)=O)C(=O)NC(C)(C)C(=O)N[C@@H](C)C(=O)N[C@@H](Cc1ccccc1)C(=O)N[C@H](C(=O)N[C@H](CCC(=O)O)C(=O)N[C@@H](Cc1ccc(O)cc1)C(=O)N[C@@H](CC(C)C)C(=O)N[C@@H](CC(C)C)C(=O)N[C@@H](CCC(=O)O)C(=O)NCC(=O)NCC(=O)N1CCC[C@H]1C(=O)N[C@@H](CO)C(=O)N[C@@H](CO)C(=O)NCC(=O)N[C@@H](C)C(=O)N1CCC[C@H]1C(=O)N1CCC[C@H]1C(=O)N1CCC[C@H]1C(=O)N[C@@H](CO)C(N)=O)[C@@H](C)CC [Example 428]	38.2	2.35	4.55	0.207	0.01	536
CC[C@H](C)[C@H](NC(=O)[C@H](CCCCN)NC(=O)[C@H](CC(=O)O)NC(=O)[C@H](CC(C)C)NC(=O)[C@H](CC(C)C)NC(=O)[C@@H](NC(=O)[C@H](CO)NC(=O)[C@H](Cc1ccc(O)cc1)NC(=O)[C@H](CC(=O)O)NC(=O)[C@H](CO)NC(=O)[C@@H](NC(=O)[C@](C)(Cc1ccccc1F)NC(=O)[C@@H](NC(=O)CNC(=O)[C@H](CCC(N)=O)NC(=O)C(C)(C)NC(=O)[C@@H](N)Cc1ccc(O)cc1)[C@@H](C)O)[C@@H](C)O)[C@@H](C)CC)C(=O)N[C@@H](C)C(=O)N[C@@H](CCC(N)=O)C(=O)NC(C)(C)C(=O)N[C@@H](C)C(=O)N[C@@H](Cc1ccccc1)C(=O)N[C@H](C(=O)N[C@@H](CCCCNC(=O)COCCOCCNC(=O)CC[C@H](NC(=O)CCCCCCCCCCCCCCCCC(=O)O)C(=O)O)C(=O)N[C@@H](Cc1ccc(O)cc1)C(=O)N[C@@H](CC(C)C)C(=O)N[C@@H](CCC(=O)O)C(=O)N[C@@H](CCC(=O)O)C(=O)NCC(=O)NCC(=O)N1CCC[C@H]1C(=O)N[C@@H](CO)C(=O)N[C@@H](CO)C(=O)NCC(=O)N[C@@H](C)C(=O)N1CCC[C@H]1C(=O)N1CCC[C@H]1C(=O)N1CCC[C@H]1C(=O)N[C@@H](CO)C(N)=O)[C@@H](C)CC [Example 430] (H-Y[Aib]QGT[αMePhe(2-F)]TSDYSILLDKIAQ[Aib]AFIK([AEEA-γGlu-C18 diacid])YLEEGGPSSGAPPPS-NH2; N-terminus assumed)	78.9	2.11	4.65	0.438	0.0144	559
